The results in this text go back to patent US20020103082A1, “Adjuvant activity through modulation of animal and plant cell membrane transport” (Board of Regents, The University of Texas System, priority 2000, published 2002).

Read-outs that look alike come from different tables or passages of the source.

Experiment [1] concerns acid phosphatase yeast mutant YMR4. The experiment is described as follows: Salvage pathway experiments in yeast (turbidity). The format is cell-based, Saccharomyces cerevisiae. Conditions: added to media with cycloheximide; 72 hours. The protocol: All cell lines were grown in liquid media either containing drug (for the drug selected lines) or not containing drug (for the non-drug selected lines). When the cultures reached a turbidity of 1.00 as measured at a wavelength of 600 in a spectrophotometer (OD600=1.00), 10 μl of each culture was then removed and placed in either media with nothing added, 3 mM potassium phosphate; 3 mM adenosine; 9 mM potassium phosphate and 3 mM adenosine (for controls); potassium phosphate and cycloheximide; adenosine and cycloheximide; adenosine, cycloheximide, and potassium phosphate. Cell cultures were further grown for 72 hours, and their turbidity was determined by OD600 readings on a spectrophotometer. Growth of cell lines for nigericin experiments: Drug selected lines were removed from cycloheximide containing plates and placed in 5 ml liquid media containing 5 ng/ml cycloheximide. Cell cultures were allowed to grow until they reached an OD600 reading of 1.00, and then 10 μl from each culture was removed and transferred to culture tubes containing 5 ml of liquid media and 25 μg/ml nigericin. OD600 readings were recorded daily for a period of up to 72 hours to determine growth.

The subject of experiment [2] is AtPGP-1 overexpressing (MDR OE) Arabidopsis thaliana plants. The experiment is classed as in vivo. Conditions: AtPGP-1 overexpressing plants; cycloheximide 500 ng/ml alone or phosphatase inhibitor 1 mM alone; after 10-20 days. On the procedure:
(§1) Arabidopsis seeds were sown in a solid germination media containing MS salts (Sigma Chemical, St. Louis, Mo.), 2% sucrose, 0.8% agar, and vitamins (Valvekens, D. et al., […], Proc. Natl. Acad. Sci. USA 85:5536-5540). For selection assays, one of the following, or a combination of both, was added to media (cooled to less than 50° C. before adding) immediately prior to pouring into plates: cycloheximide at a final concentration of 500 ng/ml; α,β-methyleneadenosine 5′-diphosphate at a final concentration of 1 mM. Plant growth was measured by germination percentage after 10-20 days. All other materials and methods were iscussed above in Example 2.

Experiment [3] relates to wild-type Arabidopsis thaliana plants. Nature of the experiment: Arabidopsis germination selection assay. The experiment is classed as in vivo. Conditions: cycloheximide 500 ng/ml alone or phosphatase inhibitor 1 mM alone, after 10-20 days. On the procedure: as §1
Experiment [4] relates to YMR4 yeast mutant deficient in two major extracellular phosphatases. The experiment is described as follows: Yeast drug selection growth assay. The format is cell-based, Saccharomyces cerevisiae. On the procedure: (§2) Yeast were grown at 30 C under conditions of constant selection for uracil auxotrophy. YNB (BiolOl, Vista, Calif.) supplemented with CSM (uracil dropout) and 2% glucose was used to grow strains having pVT101 constructs. Cycloheximide (Sigma Chemical, St. Louis, Mo.) was added to liquid media or spread on solid media to achieve a final concentration of 500 ng/ml. Nigericin (Sigma Chemical, St. Louis, Mo.) was added to liquid media or spread on solid media to achieve a final concentration of 25 μg/ml. Yeast strains used in cycloheximide selection assays were always propagated in the presence of the cycloheximide on plates and then streaked onto new plates containing drug or no drug, such that induced resistance existed in each strain at the time of the start of the assay. For selection assays on plates, single colonies were streaked; for selection in liquid media 0.01 ml of saturated culture was added to fresh media containing the drug. The plates shown in figures were grown for 3-5 days before photographs were taken. Yeast selection assays in liquid media were quantitated by turbidity as measured by absorbance at OD600.

Experiment [5] has as its system wild-type yeast strain INVSC1. The experiment is described as follows: Yeast drug selection growth assay. Conditions: cycloheximide 500 ng/ml. The format is cell-based, Saccharomyces cerevisiae. The protocol:
as §2

Experiment [6] has as its system yeast cells (YMR4 and INVSC, with or without AtPGP-1). The format is cell-based, Saccharomyces cerevisiae. Conditions: 100 mM ATP, 48 hours. The protocol: To create drug resistant yeast strains, all four cell lines were grown up in the presence of 500 ng/ml of cycloheximide, and transferred to other cycloheximide containing plates after a period of four to six days. This transfer of cell lines and subculturing continued such that the yeast cells grew in the presence of cycloheximide for a period of at least a month.
Cells cultured in media alone: To create cell lines that had not been preselected for their ability to grow in drug, yeast strains were grown on plates containing YNB (Bio101, Vista, Calif.) without uracil (-URA) to maintain the presence of the vector (which supplies URA) without any drugs added.
Cells were transferred into 5 ml YNB -URA liquid media for turbidity measurements. All cell lines (both non-drug selected and drug-selected) were grown in media with the addition of either nothing, 500 ng/ml cycloheximide, 100 mM ATP, or 500 ng/ml cycloheximide and 100 mM ATP. Turbidity readings were taken after 48 hours.

Experiment [7] relates to Arabidopsis thaliana WS wild-type plants. Nature of the experiment: Increasing plant sensitivity to herbicides (adjuvant test). The experiment is classed as in vivo. Conditions: surflan with compound of Formula II at 5 μg/ml versus surflan alone. The protocol: Arabidopsis thaliana WS wild-type plants were plated on germination media containing two commonly used herbicides, surflan and pendimethalin, in the presence and absence of an ecto-phosphatase inhibitor of Formula II and monitored for their growth in a 22° C. incubator under constant fluorescent illumination.
More specifically, germination media was prepared containing 20 μl/ml, 10 μl/ml, 2 μl/ml, 1 μl/ml, and 0.2 μl/ml of a surflan solution made at the manufacturer's recommended concentration. Compound of Formula II was added to a portion of the germination media at a final concentration of 5 μg/ml.
Arabidopsis thaliana WS wild-type seeds were surface sterilized in a 20% bleach solution for 20 minutes, washed three times in double distilled waster, and resuspended in 0.1% agarose solution. The seeds were then pipetted onto plates containing approximately 3 ml of germination media containing the various concentrations of surflan with and without compound of Formula II. All plates were placed in a 22° C. incubator under constant fluorescent illumination. Growth was assessed daily.

In experiment [8] the test system is wild-type yeast strain INVSC with plasmid pvt101-U. Nature of the experiment: Increasing yeast sensitivity to fungicide (filter disk zone of inhibition). The format is cell-based, Saccharomyces cerevisiae. Conditions: 48 hours. On the procedure: Additional experiment were performed to test the ability of ecto-phosphatase inhibitors to increase the effectiveness of the commonly used fungicide chlorothalonil. Yeast was plated on media with or without an ecto-phosphatase inhibitor of Formula X where a paper filter disk soaked in the fungicide was added to the plate. After 48 hours, the zone of inhibition of yeast growth around the filter disk was calculated.
The wild-type yeast strain INVSC with plasmid pvt101-U (for selection on media lacking uracil) was used in all experiments and each experiment was performed in triplicate. Media used was made by combining YNB (Bio 101, Vista, Calif.), the drop out supplement CSM-URA (Bio 101, Vista, Calif.), and glucose in water. […]
Twenty μl of an overnight saturated culture of yeast was plated onto each plate, spread, and allowed to dry for 20 minutes. […] The zone of inhibition of yeast growth around the disk was assessed after 48 hours.
Plates with chlorothalonil disks indeed contained a zone of inhibition surrounding the disk. […] The zone of inhibition was calculated by measuring the radius from the center of the disk to the point of noticeable yeast growth (at least 10 measurements per plate), averaging the radii measurements, and using the average radius of the plates to calculate the circular area of the zone of inhibition.

As to `Nc1ncnc2c1ncn2[C@@H]1O[C@H](CO)[C@@H](O)[C@H]1O` [adenosine], in experiment [1], the “effect on growth of cells overexpressing AtPGP-1 in drug” value is recorded as “slightly inhibitory” and the “effect on resistance to cycloheximide” value is given as “did not enhance resistance”.

With `Nc1ncnc2c1ncn2[C@@H]1O[C@H](COP(=O)(O)CP(=O)(O)O)[C@@H](O)[C@H]1O` [α,β-methyleneadenosine 5′-diphosphate], the figures for the germination rate in experiment [2] and in experiment [3] were 83% and 90%, respectively.

For the compound `C[C@@H]1C[C@@H]([C@H](O)CC2CC(=O)NC(=O)C2)C(=O)[C@@H](C)C1` [cycloheximide], the growth in drug result is listed as “did not grow” in experiment [4] (cycloheximide 500 ng/ml) and “did grow” in experiment [5]. Besides, the results for the germination rate in experiment [2] and in experiment [3] were 50% and 2%, respectively.

For the compound `Nc1ncnc2c1ncn2[C@@H]1O[C@H](COP(=O)(O)OP(=O)(O)OP(=O)(O)O)[C@@H](O)[C@H]1O` [ATP], the “growth in high levels of ATP” value is listed as “able to grow” in experiment [6] (cells not previously selected in drug) and “not able to grow” in experiment [6] (cells previously grown in cycloheximide, not overexpressing AtPGP-1).

Regarding `Cc1cccc(NS(=O)(=O)c2ccc(-c3ccccc3)cc2)c1` [Formula II], the “surflan concentration at which it is an equally effective weed killer” value in experiment [7] was “five fold less concentration”.

As for `CO[C@@H]1C[C@@H](C[C@H]2CC[C@H](C)[C@H]([C@@H](C)C(=O)O)O2)O[C@]2(O[C@](C)([C@H]3CC[C@@](C)([C@@H]4O[C@@H]([C@H]5O[C@@](O)(CO)[C@H](C)C[C@@H]5C)C[C@@H]4C)O3)C[C@H]2C)[C@@H]1C` [nigericin], the growth in drug entry in experiment [4] (nigericin 25 μg/ml, YMR4 containing vector alone) is listed as “reduced growth”.

`N#Cc1c(Cl)c(Cl)c(Cl)c(C#N)c1Cl` [chlorothalonil] returned an area of inhibition in experiment [8] (chlorothalonil by itself) of 0.35 in^2. The “average radius of inhibition” value in experiment [8] (chlorothalonil disk, plates without ecto-phosphatase inhibitor) is given as 0.33 in.

Take `O=P(O)(O)O` [phosphate, potassium phosphate]: in experiment [1], the “effect on growth of cells overexpressing AtPGP-1 in drug” value was “slightly inhibitory” and the “effect on resistance to cycloheximide” value was “did not enhance resistance”.
